# Where two headings read alike, the source gives them in different places. Numbered stars: 1 amine (or outer) side, 2 acyl side, 3 side chain; on linkers, the order of the positions; unused ones are H or OH. Bridge positions count the residues as written; N and C are the ends. Square brackets hold non-standard residues; d marks the D form. Peptide text beside a SMILES is read from it. I, II: the chains in the order shown. Phe(3-CONH2) = NC(=O)c1cccc(C[C@H](N)C(=O)O)c1; Diglycolyl = O=C(COCC(=O)[*:2])[*:1]; NMeR = CN[C@@H](CCCNC(=N)N)C(=O)O; β3hE = N[C@@H](CCC(=O)O)CC(=O)O; Cit = NC(=O)NCCC[C@H](N)C(=O)O; Pen = CC(C)(S)[C@H](N)C(=O)O; Dab = NCC[C@H](N)C(=O)O
# Assays:
# [1] = Simulated Intestinal Fluid (SIF) Stability Assay; format: in vitro ADME, porcine; conditions: pig, pH 6.5, Table 3-B, > means experiment was stopped at that time and half life was not reached, read-out: Stabilty SIF t1/2
# Method: Studies were carried out in simulated intestinal fluid (SIF) to evaluate intestinal stability of the peptide molecules of the instant invention. To prepare the SIF reagent, blank FASSIF was prepared by dissolving 0.348 g NaOH, 3.954 g sodium phosphate monobasic monohydrate and 6.186 g NaCl in a final volume of 1 liter water (final pH=6.5). To this solution, 24 g porcine pancreatin (Sigma catalog P7545) was added and stirred for 30 minutes (final pancreatin concentration is 2.4%). The solution was filtered through a cheese cloth and a No. 1 Whatman filter, and 10 ml aliquots were stored at −70° C. To run the reaction, a 10 ml aliquot was thawed at 37° C., and 125 ul aliquots were removed and mixed with an equal volume of blank FASSIF. The peptide stock solution (10 mM in 100% DMSO) was diluted 75-fold in blank FASSIF. A 50 μl aliquot of the diluted peptide was combined with 125 μl pancreatin (2.4%) and 125 μl blank FASSIF to yield final concentrations of 1% pancreatin and 22 μM peptide. The reactions were incubated at 37° C., and at various time points 50 μl aliquots were removed and added to 200 μl of quench solution containing 50% acetonitrile, 50% methanol, 5% formic acid, and 1 μg/ml internal standard. The quenched samples were centrifuged at 10,000 rpm for 10 minutes, and the supernatants were analyzed by LCMS/MS. The percent remaining at each time point was calculated based on the peak area response ratio of test to compound to internal standard. Half-lives were calculated by fitting to a first-order exponential decay equation using GraphPad.
# α4β7 = α4β7 (Homo sapiens, UniProt P13612+P26010); test: α4β7-MAdCAM Cell Adhesion Assay (RPMI 8866 human cells); format: cell-based; design: host or cells: RPMI 8866 human B lymphoblastoid cells; conditions: Table 3-B, Potency (α4β7); range classes; read-out: α4β7 cell (Hu) IC50
# Procedure, shortened: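 Washed RPMI 8866 cells (200,000/well) in DMEM with 0.1% BSA, 10 mM HEPES pH 7, 1 mM MnCl2 adhered to rh MAdCAM-1/Fc-coated wells with serially diluted peptides, 30-45 min at 37 °C. After three washes, bound cells quantified by MTT, A570, cell-free background subtracted for dose response.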
# [2] = simulated intestinal fluid (SIF) with 1% porcine pancreatin
# Sequence of α4β7 (P13612 34-1032): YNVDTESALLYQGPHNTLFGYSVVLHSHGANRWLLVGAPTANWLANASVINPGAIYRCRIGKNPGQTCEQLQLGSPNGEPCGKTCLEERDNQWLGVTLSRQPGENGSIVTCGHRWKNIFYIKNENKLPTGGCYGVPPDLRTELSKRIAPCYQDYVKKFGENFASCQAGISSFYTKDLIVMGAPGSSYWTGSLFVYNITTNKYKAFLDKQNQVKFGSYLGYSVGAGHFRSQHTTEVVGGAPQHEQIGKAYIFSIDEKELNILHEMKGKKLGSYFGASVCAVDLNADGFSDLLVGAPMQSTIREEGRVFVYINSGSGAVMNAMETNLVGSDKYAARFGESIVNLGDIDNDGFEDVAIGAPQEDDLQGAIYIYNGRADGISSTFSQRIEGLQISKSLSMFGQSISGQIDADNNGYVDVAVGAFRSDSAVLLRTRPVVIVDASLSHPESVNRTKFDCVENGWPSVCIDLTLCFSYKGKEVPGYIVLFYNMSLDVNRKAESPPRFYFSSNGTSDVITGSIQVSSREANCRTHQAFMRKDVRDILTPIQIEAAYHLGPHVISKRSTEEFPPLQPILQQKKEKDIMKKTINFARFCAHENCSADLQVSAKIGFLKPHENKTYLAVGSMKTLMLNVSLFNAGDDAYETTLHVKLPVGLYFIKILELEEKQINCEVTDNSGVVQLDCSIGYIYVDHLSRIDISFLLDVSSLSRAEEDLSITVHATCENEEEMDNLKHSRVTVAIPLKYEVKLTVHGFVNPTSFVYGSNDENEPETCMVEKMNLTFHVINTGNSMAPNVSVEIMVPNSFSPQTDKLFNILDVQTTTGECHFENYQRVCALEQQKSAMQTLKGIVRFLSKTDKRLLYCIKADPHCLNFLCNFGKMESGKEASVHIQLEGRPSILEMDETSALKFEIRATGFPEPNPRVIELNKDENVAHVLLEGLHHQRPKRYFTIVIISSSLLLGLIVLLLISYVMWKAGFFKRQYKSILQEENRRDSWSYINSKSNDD
# Sequence of α4β7 (P26010 20-798): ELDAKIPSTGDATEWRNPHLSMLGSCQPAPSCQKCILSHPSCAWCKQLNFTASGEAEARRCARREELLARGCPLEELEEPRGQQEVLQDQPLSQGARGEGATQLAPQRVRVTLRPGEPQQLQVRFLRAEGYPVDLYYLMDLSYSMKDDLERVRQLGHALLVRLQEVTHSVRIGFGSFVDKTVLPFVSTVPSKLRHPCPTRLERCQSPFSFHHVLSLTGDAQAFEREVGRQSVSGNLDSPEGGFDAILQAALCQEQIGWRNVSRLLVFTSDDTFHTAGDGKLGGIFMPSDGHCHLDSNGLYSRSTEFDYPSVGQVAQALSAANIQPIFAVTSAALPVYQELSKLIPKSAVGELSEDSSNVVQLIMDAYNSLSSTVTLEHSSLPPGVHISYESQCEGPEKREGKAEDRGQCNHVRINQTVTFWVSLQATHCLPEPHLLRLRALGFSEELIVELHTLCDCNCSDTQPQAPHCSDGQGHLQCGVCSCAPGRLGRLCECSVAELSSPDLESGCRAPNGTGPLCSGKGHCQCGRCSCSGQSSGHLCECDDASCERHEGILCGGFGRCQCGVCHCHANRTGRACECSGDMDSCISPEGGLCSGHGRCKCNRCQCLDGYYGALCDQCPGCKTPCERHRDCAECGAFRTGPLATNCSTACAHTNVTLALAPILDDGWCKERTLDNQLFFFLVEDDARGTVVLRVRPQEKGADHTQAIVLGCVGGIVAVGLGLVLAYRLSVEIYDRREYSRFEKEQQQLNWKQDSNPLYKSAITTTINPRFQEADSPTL
Structure (SMILES),"half-life at 22 μM [1, 2] [h]",IC50 (α4β7) [nM],half-life at 22 μM ([1]; simulated intestinal fluid (SIF) with porcine pancreatin) [h]
"CC(=O)N[C@@H]1C(=O)N(C)[C@@H](CCCNC(=N)N)C(=O)N[C@@H](CO)C(=O)N[C@@H](CC(=O)O)C(=O)N[C@@H]([C@@H](C)O)C(=O)N[C@@H](CC(C)C)C(=O)N[C@H](C(=O)N[C@@H](Cc2c[nH]c3ccccc23)C(=O)N[C@@H](CCC(=O)O)CC(=O)N[C@H](CCCCNC(=O)COCC(=O)NCCCC[C@@H](NC(=O)C[C@H](CCC(=O)O)NC(=O)[C@H](Cc2c[nH]c3ccccc23)NC(=O)[C@H]2NC(=O)[C@H](CC(C)C)NC(=O)[C@H]([C@@H](C)O)NC(=O)[C@H](CC(=O)O)NC(=O)[C@H](CO)NC(=O)[C@H](CCCNC(=N)N)N(C)C(=O)[C@@H](NC(C)=O)C(C)(C)SSC2(C)C)C(N)=O)C(N)=O)C(C)(C)SSC1(C)C [compound 1] (I: Ac-[Pen][NMeR]SDTL[Pen]W[β3hE][dK]-NH2 / II: Ac-[Pen][NMeR]SDTL[Pen]W[β3hE][dK]-NH2; disulfide I:1-I:7, II:1-II:7; linker I:10-II:10 via Diglycolyl)",> 3,50 to 100,
CC(=O)N[C@@H]1C(=O)N(C)[C@@H](CCCNC(=N)N)C(=O)N[C@@H](CO)C(=O)N[C@@H](CC(=O)O)C(=O)N[C@@H]([C@@H](C)O)C(=O)N[C@@H](CC(C)C)C(=O)N[C@H](C(=O)N[C@@H](Cc2c[nH]c3ccccc23)C(=O)N[C@H](CCC(=O)O)C(=O)N[C@@H](CCN)C(N)=O)C(C)(C)SSC1(C)C [compound 56] (Ac-[Pen][NMeR]SDTL[Pen]W[dE][Dab]-NH2; disulfide 1-7),> 3,500 to 1000,
"CC(=O)N[C@@H]1C(=O)N(C)[C@@H](CCCNC(=N)N)C(=O)N[C@@H](CO)C(=O)N[C@@H](CC(=O)O)C(=O)N[C@@H]([C@@H](C)O)C(=O)N[C@@H](CC(C)C)C(=O)N[C@H](C(=O)N[C@@H](Cc2cccc(C(N)=O)c2)C(=O)N[C@H](CCC(=O)O)C(=O)N[C@H](CCCCNC(=O)COCC(=O)NCCCC[C@@H](NC(=O)[C@@H](CCC(=O)O)NC(=O)[C@H](Cc2cccc(C(N)=O)c2)NC(=O)[C@H]2NC(=O)[C@H](CC(C)C)NC(=O)[C@H]([C@@H](C)O)NC(=O)[C@H](CC(=O)O)NC(=O)[C@H](CO)NC(=O)[C@H](CCCNC(=N)N)N(C)C(=O)[C@@H](NC(C)=O)C(C)(C)SSC2(C)C)C(N)=O)C(N)=O)C(C)(C)SSC1(C)C [compound 99] (I: Ac-[Pen][NMeR]SDTL[Pen][Phe(3-CONH2)][dE][dK]-NH2 / II: Ac-[Pen][NMeR]SDTL[Pen][Phe(3-CONH2)][dE][dK]-NH2; disulfide I:1-I:7, II:1-II:7; linker I:10-II:10 via Diglycolyl)",,100 to 500,> 3
"CC(=O)N[C@@H]1C(=O)N(C)[C@@H](CCCNC(=N)N)C(=O)N[C@@H](CO)C(=O)N[C@@H](CC(=O)O)C(=O)N[C@@H]([C@@H](C)O)C(=O)N[C@@H](CC(C)C)C(=O)N[C@H](C(=O)N[C@H](Cc2ccccc2)C(=O)N[C@H](CCC(=O)O)C(=O)N[C@H](CCCCNC(=O)COCC(=O)NCCCC[C@@H](NC(=O)[C@@H](CCC(=O)O)NC(=O)[C@@H](Cc2ccccc2)NC(=O)[C@H]2NC(=O)[C@H](CC(C)C)NC(=O)[C@H]([C@@H](C)O)NC(=O)[C@H](CC(=O)O)NC(=O)[C@H](CO)NC(=O)[C@H](CCCNC(=N)N)N(C)C(=O)[C@@H](NC(C)=O)C(C)(C)SSC2(C)C)C(N)=O)C(N)=O)C(C)(C)SSC1(C)C [compound 2] (I: Ac-[Pen][NMeR]SDTL[Pen][dF][dE][dK]-NH2 / II: Ac-[Pen][NMeR]SDTL[Pen][dF][dE][dK]-NH2; disulfide I:1-I:7, II:1-II:7; linker I:10-II:10 via Diglycolyl)",> 3,100 to 500,
"CC(=O)N[C@@H]1C(=O)N(C)[C@@H](CCCNC(=N)N)C(=O)N[C@@H](CO)C(=O)N[C@@H](CC(=O)O)C(=O)N[C@@H]([C@@H](C)O)C(=O)N[C@@H](CC(C)C)C(=O)N[C@H](C(=O)N[C@@H](Cc2c[nH]c3ccccc23)C(=O)N[C@@H](CCCNC(N)=O)C(=O)N[C@H](CCCCNC(=O)COCC(=O)NCCCC[C@@H](NC(=O)[C@H](CCCNC(N)=O)NC(=O)[C@H](Cc2c[nH]c3ccccc23)NC(=O)[C@H]2NC(=O)[C@H](CC(C)C)NC(=O)[C@H]([C@@H](C)O)NC(=O)[C@H](CC(=O)O)NC(=O)[C@H](CO)NC(=O)[C@H](CCCNC(=N)N)N(C)C(=O)[C@@H](NC(C)=O)C(C)(C)SSC2(C)C)C(N)=O)C(N)=O)C(C)(C)SSC1(C)C [compound 84] (I: Ac-[Pen][NMeR]SDTL[Pen]W[Cit][dK]-NH2 / II: Ac-[Pen][NMeR]SDTL[Pen]W[Cit][dK]-NH2; disulfide I:1-I:7, II:1-II:7; linker I:10-II:10 via Diglycolyl)",< 0.333,10 to 25,
"CC(=O)N[C@H](CCCCN)C(=O)N[C@H]1CSSC[C@@H](C(=O)N[C@@H](Cc2c[nH]c3ccccc23)C(=O)N[C@H](CCCCNC(=O)COCC(=O)NCCCC[C@@H](NC(=O)[C@H](Cc2c[nH]c3ccccc23)NC(=O)[C@@H]2CSSC[C@H](NC(=O)[C@@H](CCCCN)NC(C)=O)C(=O)N(C)[C@@H](CCCNC(=N)N)C(=O)N[C@@H](CO)C(=O)N[C@@H](CC(=O)O)C(=O)N[C@@H]([C@@H](C)O)C(=O)N[C@@H](CC(C)C)C(=O)N2)C(N)=O)C(N)=O)NC(=O)[C@H](CC(C)C)NC(=O)[C@H]([C@@H](C)O)NC(=O)[C@H](CC(=O)O)NC(=O)[C@H](CO)NC(=O)[C@H](CCCNC(=N)N)N(C)C1=O [compound 4] (I: Ac-[dK]C[NMeR]SDTLCW[dK]-NH2 / II: Ac-[dK]C[NMeR]SDTLCW[dK]-NH2; disulfide I:2-I:8, II:2-II:8; linker I:10-II:10 via Diglycolyl)",< 0.333,10 to 25,

# Source: patent publication US9809623B2, “α4β7 peptide monomer and dimer antagonists” (Protagonist Therapeutics, Inc., priority 2014, dated 2017)
